Source: US20240025919A1, “AZA-TETRACYCLIC OXAZEPINE COMPOUNDS AND USES THEREOF” (Genentech, Inc., priority 2022, published 2024)

What was measured:
KRAS G12D = KRAS G12D (Homo sapiens (Human), UniProt P01116, G12D); assay: KRAS G12D LoEnz Biochemical Assay, BODIPY-GDP Exchange TR-FRET (SOS1-mediated nucleotide exchange); settings: read-out: KRas (G12D) GDP HTRF IC50
KRAS WT = KRAS WT (Homo sapiens (Human), UniProt P01116); assay: KRAS WT Biochemical Assay, BODIPY-GDP Exchange TR-FRET (Example 501; 3 nM KRAS WT, 3 nM SOS1, 60-minute incubation); settings: read-out: KRas HTRF IC50
Procedure, shortened: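 SOS1-mediated exchange assay: 3 nM biotin-KRAS WT with terbium-streptavidin, started with 3 nM SOS1 and 300 nM BODIPY-GDP, HEPES pH 7.5 with MgCl2. TR-FRET (520/490 nm) read after 60 min; normalized to DMSO and full-inhibition control, IC50 from 4-parameter Hill fit.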

Sequence of KRAS G12D (P01116-2 other isoform, or with tags, fused parts or gaps G12D): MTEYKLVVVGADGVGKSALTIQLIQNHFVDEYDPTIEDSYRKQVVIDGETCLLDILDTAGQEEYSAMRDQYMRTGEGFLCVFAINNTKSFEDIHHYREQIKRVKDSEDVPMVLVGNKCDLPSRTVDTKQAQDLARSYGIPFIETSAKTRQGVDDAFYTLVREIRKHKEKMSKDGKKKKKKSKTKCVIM
Sequence of KRAS WT (P01116-2 other isoform, or with tags, fused parts or gaps): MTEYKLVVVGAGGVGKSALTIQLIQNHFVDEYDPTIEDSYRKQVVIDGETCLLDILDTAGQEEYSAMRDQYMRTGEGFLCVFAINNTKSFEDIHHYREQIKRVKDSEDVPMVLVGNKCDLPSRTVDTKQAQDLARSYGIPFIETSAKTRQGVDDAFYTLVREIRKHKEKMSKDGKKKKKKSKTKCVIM

`Cc1cc(N)cc(-c2nc3c4c(nc(OC[C@@H]5CC[C@H]6COCCN65)nc4c2F)N2C[C@H]4CC[C@H](N4)[C@H]2[C@H](C)O3)c1CC(F)F` [Compound 230, 4-(2,2-Difluoroethyl)-3-((5S,5aS,6S,9R)-1-fluoro-12-(((6S,8aS)-hexahydro-1H-pyrrolo[2,1-c][1,4]oxazin-6-yl)methoxy)-5-methyl-5a,6,7,8,9,10-hexahydro-5H-4-oxa-3,10a,11,13,14-pentaaza-6,9-methanonaphtho[1,8-ab]heptalen-2-yl)-5-methylaniline] was tested, and the IC50 (KRAS G12D) was 1.13 nM and the IC50 (KRAS WT) was 213 nM.
`Cc1cc(N)c(F)c(-c2nc3c4c(nc(OC[C@@H]5CC[C@H]6COCCN65)nc4c2F)N2C[C@H]4CC[C@H](N4)[C@H]2[C@H](C)O3)c1CC(F)F` [Compound 231, 4-(2,2-Difluoroethyl)-2-fluoro-3-((5S,5aS,6S,9R)-1-fluoro-12-(((6S,8aS)-hexahydro-1H-pyrrolo[2,1-c][1,4]oxazin-6-yl)methoxy)-5-methyl-5a,6,7,8,9,10-hexahydro-5H-4-oxa-3,10a,11,13,14-pentaaza-6,9-methanonaphtho[1,8-ab]heptalen-2-yl)-5-methylaniline] gave an IC50 (KRAS G12D) of 4.6 nM and an IC50 (KRAS WT) of 1240 nM.
`CCc1c(F)c(N)cc(-c2nc3c4c(nc(OC[C@@H]5CC[C@H]6COCCN65)nc4c2F)N2C[C@H]4CC[C@H](N4)[C@H]2[C@H](C)O3)c1C(F)(F)F` [Compound 232, 3-Ethyl-2-fluoro-5-((5S,5aS,6S,9R)-1-fluoro-12-(((6S,8aS)-hexahydro-1H-pyrrolo[2,1-c][1,4]oxazin-6-yl)methoxy)-5-methyl-5a,6,7,8,9,10-hexahydro-5H-4-oxa-3,10a,11,13,14-pentaaza-6,9-methanonaphtho[1,8-ab]heptalen-2-yl)-4-(trifluoromethyl)aniline] showed an IC50 (KRAS G12D) of 2.86 nM and an IC50 (KRAS WT) of 277 nM.
In the case of `Cc1c(F)c(N)cc(-c2nc3c4c(nc(OC[C@@]56CCCN5C[C@H](F)C6)nc4c2F)N2C[C@H]4CC[C@H](NC4)[C@H]2CO3)c1C(F)(F)F` [Compound 236, 2-Fluoro-5-((5aS,6S,9S)-1-fluoro-12-(((2R,7aS)-2-fluorotetrahydro-1H-pyrrolizin-7a(5H)-yl)methoxy)-5a,6,7,8,9,10-hexahydro-5H-4-oxa-3,10a,11,13,15-pentaaza-6,9-ethanonaphtho[1,8-ab]heptalene-2-yl)-3-methyl-4-(trifluoromethyl)aniline], the IC50 (KRAS G12D) is reported as 68 nM and the IC50 (KRAS WT) is reported as 830 nM.
`Cc1c(F)c(N)cc(-c2nc3c4c(nc(OC[C@@]56CCCN5C[C@H](F)C6)nc4c2F)N2C[C@H]4CC[C@H](N4)[C@H]2C(CF)O3)c1C(F)(F)F` (stereo partly drawn) [Compound 239, 2-Fluoro-5-((5aS,6S,9R)-1-fluoro-5-(fluoromethyl)-12-(((2R,7aS)-2-fluorotetrahydro-1H-pyrrolizin-7a(5H)-yl)methoxy)-5a,6,7,8,9,10-hexahydro-5H-4-oxa-3,10a,11,13,14-pentaaza-6,9-methanonaphtho[1,8-ab]heptalen-2-yl)-3-methyl-4-(trifluoromethyl)aniline] gave an IC50 (KRAS G12D) of 0.58 nM and an IC50 (KRAS WT) of 0.94 nM.
`Cc1c(Cl)c(N)cc(-c2nc3c4c(nc(OC[C@@]56CCCN5C[C@H](F)C6)nc4c2Cl)N2C[C@H]4CC[C@H](N4)[C@H]2[C@H](C)O3)c1C(F)(F)F` [Compound 241, 2-Chloro-5-((5S,5aS,6S,9R)-1-chloro-12-(((2R,7aS)-2-fluorotetrahydro-1H-pyrrolizin-7a(5H)-yl)methoxy)-5-methyl-5a,6,7,8,9,10-hexahydro-5H-4-oxa-3,10a,11,13,14-pentaaza-6,9-methanonaphtho[1,8-ab]heptalen-2-yl)-3-methyl-4-(trifluoromethyl)aniline] was tested, and the IC50 (KRAS G12D) was 0.13 nM and the IC50 (KRAS WT) was 15.4 nM.
For `Cc1nc(N)cc(-c2nc3c4c(nc(OC[C@@]56CCCN5C[C@H](F)C6)nc4c2F)N2C[C@H]4CC[C@H](N4)[C@H]2[C@H](C(F)(F)F)O3)c1C(F)(F)F` [Compound 242, 4-((5R,5aS,6S,9R)-1-Fluoro-12-(((2R,7aS)-2-fluorotetrahydro-1H-pyrrolizin-7a(5H)-yl)methoxy)-5-(trifluoromethyl)-5a,6,7,8,9,10-hexahydro-5H-4-oxa-3,10a,11,13,14-pentaaza-6,9-methanonaphtho[1,8-ab]heptalen-2-yl)-6-methyl-5-(trifluoromethyl)pyridin-2-amine], the IC50 (KRAS G12D) was 0.33 nM and the IC50 (KRAS WT) was 5.29 nM.
Compound `Cc1c(F)c(N)cc(-c2nc3c4c(nc(OC[C@@H]5CC[C@H]6COCCN65)nc4c2F)N2C[C@H]4CC[C@H](N4)[C@H]2[C@H](C(F)(F)F)O3)c1C(F)(F)F` [Compound 245, 2-Fluoro-5-((5R,5aS,6S,9R)-1-fluoro-12-(((6S,8aS)-hexahydro-1H-pyrrolo[2,1-c][1,4]oxazin-6-yl)methoxy)-5-(trifluoromethyl)-5a,6,7,8,9,10-hexahydro-5H-4-oxa-3,10a,11,13,14-pentaaza-6,9-methanonaphtho[1,8-ab]heptalene-2-yl)-3-methyl-4-(trifluoromethyl)aniline] has an IC50 (KRAS G12D) of 0.249 nM and an IC50 (KRAS WT) of 7.44 nM.
`Cc1c(F)c(N)cc(-c2nc3c4c(nc(OC[C@@]56CCCN5C[C@H](F)C6)nc4c2F)N2C[C@H]4CC[C@H](N4)[C@H]2[C@H](C(F)(F)F)O3)c1C(F)(F)F` [Compound 247, 2-Fluoro-5-((5R,5aS,6S,9R)-1-fluoro-12-(((2R,7aS)-2-fluorotetrahydro-1H-pyrrolizin-7a(5H)-yl)methoxy)-5-(trifluoromethyl)-5a,6,7,8,9,10-hexahydro-5H-4-oxa-3,10a,11,13,14-pentaaza-6,9-methanonaphtho[1,8-ab]heptalene-2-yl)-3-methyl-4-(trifluoromethyl)aniline] showed an IC50 (KRAS G12D) of 0.21 nM and an IC50 (KRAS WT) of 0.959 nM.
`Cc1c(F)c(N)cc(-c2nc3c4c(nc(OC[C@@]56CCCN5C[C@H](F)C6)nc4c2F)N2C[C@H]4CC[C@H](N4)[C@@H]2[C@@H](C(F)(F)F)O3)c1C(F)(F)F` [Compound 248, 2-Fluoro-5-((5S,5aR,6S,9R)-1-fluoro-12-(((2R,7aS)-2-fluorotetrahydro-1H-pyrrolizin-7a(5H)-yl)methoxy)-5-(trifluoromethyl)-5a,6,7,8,9,10-hexahydro-5H-4-oxa-3,10a,11,13,14-pentaaza-6,9-methanonaphtho[1,8-ab]heptalene-2-yl)-3-methyl-4-(trifluoromethyl)aniline] gave an IC50 (KRAS G12D) of 1.1 nM and an IC50 (KRAS WT) of 0.522 nM.
With `Cc1c(F)c(N)cc(-c2nc3c4c(nc(OCC5(CN6CCOCC6)CC5)nc4c2F)N2C[C@H]4CC[C@H](N4)[C@H]2[C@H](C(F)(F)F)O3)c1C(F)(F)F` [Compound 249, 2-Fluoro-5-((5R,5aS,6S,9R)-1-fluoro-12-((1-(morpholinomethyl)cyclopropyl)methoxy)-5-(trifluoromethyl)-5a,6,7,8,9,10-hexahydro-5H-4-oxa-3,10a,11,13,14-pentaaza-6,9-methanonaphtho[1,8-ab]heptalene-2-yl)-3-methyl-4-(trifluoromethyl)aniline] the IC50 (KRAS G12D) was 0.22 nM and the IC50 (KRAS WT) was 1.37 nM.
With `Cc1c(F)c(N)cc(-c2nc3c4c(nc(OC[C@@]56CCCN5C[C@H](F)C6)nc4c2F)N2C[C@H]4CC[C@H](N4)[C@H]2[C@H](C(F)(F)F)O3)c1CC(F)F` [Compound 250, 4-(2,2-Difluoroethyl)-2-fluoro-5-((5R,5aS,6S,9R)-1-fluoro-12-(((2R,7aS)-2-fluorotetrahydro-1H-pyrrolizin-7a(5H)-yl)methoxy)-5-(trifluoromethyl)-5a,6,7,8,9,10-hexahydro-5H-4-oxa-3,10a,11,13,14-pentaaza-6,9-methanonaphtho[1,8-ab]heptalene-2-yl)-3-methylaniline] the IC50 (KRAS G12D) was 0.39 nM and the IC50 (KRAS WT) was 13.6 nM.
`C#Cc1cccc2cc(O)cc(-c3nc4c5c(nc(OC[C@@]67CCCN6C[C@H](F)C7)nc5c3F)N3C[C@H]5CC[C@H](N5)[C@H]3[C@H](C(F)(F)F)O4)c12` [Compound 251, 5-Ethynyl-4-((5R,5aS,6S,9R)-1-fluoro-12-(((2R,7aS)-2-fluorotetrahydro-1H-pyrrolizin-7a(5H)-yl)methoxy)-5-(trifluoromethyl)-5a,6,7,8,9,10-hexahydro-5H-4-oxa-3,10a,11,13,14-pentaaza-6,9-methanonaphtho[1,8-ab]heptalene-2-yl)naphthalen-2-ol] gave an IC50 (KRAS G12D) of 0.16 nM and an IC50 (KRAS WT) of 1.05 nM.
Work on `Cc1nc(N)cc(-c2nc3c4c(nc(OC[C@@H]5CC[C@H]6COCCN65)nc4c2F)N2C[C@H]4CC[C@H](N4)[C@H]2[C@H](C(F)(F)F)O3)c1C(F)(F)F` [Compound 253, 4-((5R,5aS,6S,9R)-1-Fluoro-12-(((6S,8aS)-hexahydro-1H-pyrrolo[2,1-c][1,4]oxazin-6-yl)methoxy)-5-(trifluoromethyl)-5a,6,7,8,9,10-hexahydro-5H-4-oxa-3,10a,11,13,14-pentaaza-6,9-methanonaphtho[1,8-ab]heptalene-2-yl)-6-methyl-5-(trifluoromethyl)pyridin-2-amine] yielded an IC50 (KRAS G12D) of 1.03 nM and an IC50 (KRAS WT) of 37.1 nM.
Compound `Cc1nc(N)cc(-c2nc3c4c(nc(OC[C@@]56CCCN5CC5(CC5(F)F)C6)nc4c2F)N2C[C@H]4CC[C@H](N4)[C@H]2[C@H](C(F)(F)F)O3)c1C(F)(F)F` (stereo partly drawn) [Compound 254, 4-((5R,5aS,6S,9R)-12-(((7a′S)-2,2-Difluorodihydro-1′H,3′H-spiro[cyclopropane-1,2′-pyrrolizin]-7a′(5′H)-yl)methoxy)-1-fluoro-5-(trifluoromethyl)-5a,6,7,8,9,10-hexahydro-5H-4-oxa-3,10a,11,13,14-pentaaza[6,9]methanonaphtho[1,8-ab]heptalene-2-yl)-6-methyl-5-(trifluoromethyl)pyridin-2-amine] has an IC50 (KRAS G12D) of 0.49 nM and an IC50 (KRAS WT) of 1.25 nM.
Compound `Cc1nc(N)c(F)c(-c2nc3c4c(nc(OC[C@@]56CCCN5C[C@H](F)C6)nc4c2F)N2C[C@H]4CC[C@H](N4)[C@H]2[C@H](C(F)(F)F)O3)c1C(F)(F)F` [Compound 256, 3-Fluoro-4-((5R,5aS,6S,9R)-1-fluoro-12-(((2R,7aS)-2-fluorotetrahydro-1H-pyrrolizin-7a(5H)-yl)methoxy)-5-(trifluoromethyl)-5a,6,7,8,9,10-hexahydro-5H-4-oxa-3,10a,11,13,14-pentaaza-6,9-methanonaphtho[1,8-ab]heptalen-2-yl)-6-methyl-5-(trifluoromethyl)pyridin-2-amine] has an IC50 (KRAS G12D) of 0.82 nM and an IC50 (KRAS WT) of 17 nM.
